ChEMBL document CHEMBL1135109, “Discovery and initial SAR of imidazoquinoxalines as inhibitors of the Src-family kinase p56(Lck)” (Bioorg Med Chem Lett, 2002)

Molecular target: Tyrosine-protein kinase Lck (Homo sapiens, UniProt P06239)
Sequence (P06239 whole entry): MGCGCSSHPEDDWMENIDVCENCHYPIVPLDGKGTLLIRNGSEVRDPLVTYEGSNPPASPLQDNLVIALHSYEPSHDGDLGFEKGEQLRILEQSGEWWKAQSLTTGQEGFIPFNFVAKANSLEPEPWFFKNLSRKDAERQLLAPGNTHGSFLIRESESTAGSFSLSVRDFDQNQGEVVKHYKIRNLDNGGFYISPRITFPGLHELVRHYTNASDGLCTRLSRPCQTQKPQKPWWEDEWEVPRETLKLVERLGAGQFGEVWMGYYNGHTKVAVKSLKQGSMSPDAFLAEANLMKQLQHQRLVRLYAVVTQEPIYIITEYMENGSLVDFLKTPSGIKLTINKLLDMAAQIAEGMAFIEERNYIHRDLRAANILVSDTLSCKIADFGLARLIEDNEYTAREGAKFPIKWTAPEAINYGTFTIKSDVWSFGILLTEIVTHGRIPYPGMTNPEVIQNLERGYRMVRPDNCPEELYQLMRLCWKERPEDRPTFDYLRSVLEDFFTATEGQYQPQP
Description: Inhibitory activity against recombinant p56 Lck tyrosine kinase expressed as a His-tagged protein in insect cells using a baculovirus expression system

IC50 | SMILES
16 nM | Cc1cccc(C)c1Nc1nc2ccccc2n2cncc12
665 nM | CCNC(=O)c1ncc2c(Nc3c(C)cccc3Cl)nc3c(OC)c(OC)ccc3n12
7.4 nM | COc1ccc2c(nc(Nc3c(C)cccc3Cl)c3cnc(C)n32)c1OC
> 12500 nM | Brc1ccc(Nc2nc3ccccc3n3cncc23)cc1
> 12500 nM | c1ccc2c(c1)nc(Nc1ccncc1)c1cncn12
238 nM | COc1ccc2c(nc(Nc3c(C)cccc3Cl)c3cnc(C(O)C(C)C)n32)c1OC (stereo not drawn)
810 nM | O=C(Nc1nc2ccccc2n2cncc12)c1c(Cl)cccc1Cl
890 nM | c1ccc(Nc2nc3ccccc3n3cncc23)cc1
53 nM | COc1ccc2c(nc(Nc3c(C)cccc3Cl)c3cnc(C(C)O)n32)c1OC (stereo not drawn)
1330 nM | Fc1cccc(Nc2nc3ccccc3n3cncc23)c1
> 12500 nM | Cc1ccccc1C(=O)Nc1nc2ccccc2n2cncc12
3170 nM | c1ccc2c(c1)nc(NC1CC1)c1cncn12
60 nM | Clc1ccccc1Nc1nc2ccccc2n2cncc12
> 12500 nM | CCCCCCNc1nc2ccccc2n2cncc12
2680 nM | CCCNc1nc2ccccc2n2cncc12
69 nM | COc1ccc2c(nc(Nc3c(C)cccc3Cl)c3cnc(CCCO)n32)c1OC

IC50 | SMILES
> 12500 nM | O=[N+]([O-])c1ccccc1Nc1nc2ccccc2n2cncc12
> 12500 nM | c1ccc(CNc2nc3ccccc3n3cncc23)cc1
> 12500 nM | CN(c1ccccc1Cl)c1nc2ccccc2n2cncc12
> 12500 nM | Cc1cccc(C)c1-c1nc2ccccc2n2cncc12
> 12500 nM | Brc1ccccc1Sc1nc2ccccc2n2cncc12
4390 nM | Clc1cccc(CCNc2nc3ccccc3n3cncc23)c1
4.3 nM | COc1ccc2c(nc(Nc3c(C)cccc3Cl)c3cnc(/C=N/O)n32)c1OC
390 nM | Fc1ccccc1Nc1nc2ccccc2n2cncc12
240 nM | Cc1ccc(Nc2nc3ccccc3n3cncc23)c(Cl)c1
> 12500 nM | Brc1ccccc1Nc1nc2ccccc2n2cnc(-c3ccccc3)c12
9 nM | Clc1cccc(Cl)c1Nc1nc2ccccc2n2cncc12
360 nM | Fc1cccc(F)c1Nc1nc2ccccc2n2cncc12
10 nM | COc1ccc2c(nc(Nc3c(C)cccc3Cl)c3cnc(C=O)n32)c1OC
3170 nM | c1ccc2c(c1)nc(NC1CCCCC1)c1cncn12
6.2 nM | COc1ccc2c(nc(Nc3c(C)cccc3Cl)c3cnc(CO)n32)c1OC
> 50000 nM | Brc1ccccc1Nc1nc2ccccc2n2ccnc12

SMILES | IC50
COc1ccc2c(nc(Nc3c(C)cccc3Cl)c3cncn32)c1OC | 2 nM
Brc1cccc(Br)c1Nc1nc2ccccc2n2cncc12 | 50 nM
c1cncc(Nc2nc3ccccc3n3cncc23)c1 | 820 nM
O=C(Nc1nc2ccccc2n2cncc12)c1ccccc1Br | 60 nM
Cc1cccc(Cl)c1Nc1nc2ccccc2n2cncc12 | 9 nM
Cc1ncn2c1c(Nc1ccccc1Cl)nc1ccccc12 | 30 nM
Cc1cc(C)c(Nc2nc3ccccc3n3cncc23)c(C)c1 | 40 nM
Cc1ncc2c(Nc3ccccc3Br)nc3ccccc3n12 | 180 nM
Brc1ccccc1Oc1nc2ccccc2n2cncc12 | 3700 nM
CCc1cccc(CC)c1Nc1nc2ccccc2n2cncc12 | 1690 nM
Cc1cc(C)c(Nc2nc3ccccc3n3cncc23)c(Cl)c1 | 30 nM
COc1ccccc1Nc1nc2ccccc2n2cncc12 | 5520 nM

Test system: T-cell
Test: Compound was tested for potency against anti-CD3/anti-CD28 induced PBL proliferation of human peripheral blood T-cells

SMILES | IC50
Cc1cccc(C)c1Nc1nc2ccccc2n2cncc12 | 3000 nM
COc1ccc2c(nc(Nc3c(C)cccc3Cl)c3cncn32)c1OC | 670 nM
Brc1ccccc1Nc1nc2ccccc2n2cncc12 | 17000 nM
Cc1cccc(Cl)c1Nc1nc2ccccc2n2cncc12 | 7000 nM
